Test results taken from US10632127B2, “Targeted notch pathway inhibitors” (Hoffmann-La Roche Inc., priority 2015, dated 2020).
Where a name gives a salt, the structure may show the parent alone.

Columns and labels:
[1] = target: Notch signal transduction pathway; test: In vitro Notch signal transduction pathway activity assay (DR215/F2 luciferase reporter); format: cell-based, human
Method: The compounds were dissolved in dimethyl sulfoxide (DMSO) at 10 mM stock solution, aliquoted and stored at −4° C. until use, then diluted in PBS or cell culture medium. In the experimental settings, controls containing increasing concentrations of DMSO, corresponding to the amount of DMSO of the diluted compounds were always included. For in vivo experiments, the compounds were dissolved in 0.9% NaCl, incubated 30 min at 40° C. and sonicated for 5 min.
The requirement of proteolytic activation of the prodrugs to inhibit Notch cleavage by the γ-secretase, was investigated using a reporter assay (Table 3). The DR215/F2 cell line expresses a reporter construct designed to monitor the activity of the Notch signal transduction pathway. The DR215/F2 cell line 39 carries two transgenes: the firefly luciferase reporter gene expressed under the control of the Gal4 promoter and the human Notch1 activator gene fused with the yeast Gal4 transcription factor. This assay confirmed that the prodrugs were able to inhibit γ-secretase and the activation of the Notch pathway. The DR215/F2 cell reporter assay was also used to determine the IC50 for blockade of the Notch pathway by all the compounds designed and prepared.
The values were determined using the 215/F2 reporter cell line for Notch activation by the γ-secretase. All values are the mean of at least 3 experiments.
The preparation and characterization of rat brain-derived EC219 endothelial cells have been described in Juillerat-Jeanneret, L. et al. In Vitro Cell. Dev. Biol. 1992, 28A, 537-543. These cells express high levels of APA and γ-GT activities and can be used for determining kinetics in living cells, and were chosen as APA- and γ-GT-positive representative cell models. EC219 cells were grown in DMEM medium containing 1 g/l glucose, 10% heat-inactivated fetal calf serum (FCS, EuroClone, UK) supplemented with 100 U/mL penicillin and 100 μg/mL streptomycin (P/S) on uncoated cell culture plastic ware. The HEK293 and HK2 human kidney cells are available from the ATCC (American Tissue Culture Collection, Manassas, Va., USA). HEK293 cells were grown on uncoated cell culture plastic ware in Iscove modified Dulbecco medium (IMDM, Life Technologies) containing 10% FCS and P/S. HK2 cells were grown on uncoated cell culture plastic ware in DMEM/F-12 GlutaMAX medium (Gibco) containing 5% FCS, P/S, 1% ITS (1.0 mg/ml bovine insulin, 0.55 mg/ml human transferrin and 0.5 μg/ml sodium selenite, Sigma-Aldrich) and 5 ng/ml hydrocortisone. The human HEK293-derived DR215/F2 embryonic kidney cell line, stably transfected with pFR Luc and APP-Notch Gal (plasmid DR215) as described in WO 2006/061136 A2 and Brockhaus, M. Neuroreport 1998 9, 1481-1486, were maintained using IMDM with 10% FCS supplemented with P/S and kept under double-selection with 150 μg/ml G-418 and 50 μg/ml hygromycin B on coated (1:100 Poly-L-lysine) cell culture plastic ware. In this assay, the Notch-Gal4 protein is bound to the cell membrane via its trans-membrane domain. The Notch intracellular domain is released by proteolytic cleavage mediated by the γ-secretase and moves to the cell nucleus where it activates the reporter luciferase gene transcript. Inhibition of γ-secretase thus decreases luciferase activity. Briefly, cultures were grown in 96-well microplates to 80% confluence; the cells were then washed in PBS and exposed to decreasing concentrations of the γ-secretase-inhibitor analogues in complete IMDM culture medium without red phenol at 37° C. for 19 h. Then 75 μl of supernatant from each well was removed and the luciferase activity was determined by adding 25 μl of Steady-Glo luciferase assay reagent (Promega).

[2] = tested on: EC219 cells; test: Extracellular release of the γ-secretase inhibitor from prodrugs by EC219 endothelial cells; format: in vitro ADME, rat; settings: HEK293, 215/F2, HK2 and EC219 cells, 20 μM in PBS, 19 h
Method: FIG. 2A. Extracellular release of amine-SecrI (11a) metabolites for α-Glu- and γ-Glu-secretase inhibitor prodrugs. The prodrugs were added to the cells for 19 h, then the supernatants were harvested and analyzed for SecrI (8), amine-SecrI (11a), the prodrugs 13a, 13b, 15a, 15b and (for 13a, 15a) also the correponding deacetylated metabolites.
Cpd added: 20 μM in PBS, 19 h incubation. SecrI (8) is stable when added to cells for 19 h; free SecrI (8) was never detected from any prodrug.
The preparation and characterization of rat brain-derived EC219 endothelial cells have been described in Juillerat-Jeanneret, L. et al. In Vitro Cell. Dev. Biol. 1992, 28A, 537-543. These cells express high levels of APA and γ-GT activities and can be used for determining kinetics in living cells, and were chosen as APA- and γ-GT-positive representative cell models. EC219 cells were grown in DMEM medium containing 1 g/l glucose, 10% heat-inactivated fetal calf serum (FCS, EuroClone, UK) supplemented with 100 U/mL penicillin and 100 μg/mL streptomycin (P/S) on uncoated cell culture plastic ware. The HEK293 and HK2 human kidney cells are available from the ATCC (American Tissue Culture Collection, Manassas, Va., USA). HEK293 cells were grown on uncoated cell culture plastic ware in Iscove modified Dulbecco medium (IMDM, Life Technologies) containing 10% FCS and P/S. HK2 cells were grown on uncoated cell culture plastic ware in DMEM/F-12 GlutaMAX medium (Gibco) containing 5% FCS, P/S, 1% ITS (1.0 mg/ml bovine insulin, 0.55 mg/ml human transferrin and 0.5 μg/ml sodium selenite, Sigma-Aldrich) and 5 ng/ml hydrocortisone. […] Then 75 μl of supernatant from each well was removed and the luciferase activity was determined by adding 25 μl of Steady-Glo luciferase assay reagent (Promega).
A first screen of the different γ-secretase prodrugs was performed in vitro to determine the cleavage rate of each compound and ex-vivo in mouse kidney tissues. Extracellular release of the γ-secretase inhibitor from prodrugs by human kidney cells (HEK293, HEK293-derived Notch-reporter 215/F2 cells28,39 and HK2 cells) as well as the rat brain-derived EC219 endothelial cells which express very high levels of APA and γ-GT activities were evaluated for liberating active inhibitors SecrI (8) or amine-SecrI (11a) (FIG. 2A).
All samples were analyzed using protein precipitation followed by LC-MS/MS analysis. […] One μL of the supernatant was analyzed by LC/MS. […]

[3] = target: γ-secretase (Homo sapiens, UniProt P49768); test: In vitro γ-secretase activity assay (cell-free); format: biochemical; settings: HEK293 membrane fraction, recombinant APP substrate, Abeta ELISA
Method: The γ-secretase activity of the γ-secretase inhibiting alcohols of formula (A) of present invention was determined in cell-free in vitro assays where e.g., a cell lysate containing the γ-secretase complex is incubated with a suitable β-Amyloid Precursor Protein (APP)-derived substrate which is cleaved to the Abeta peptides. The amount of produced peptides can be determined with specific ELISA assays. Cell lines of neuronal origin secrete Abeta peptides which can be measured with the specific ELISA assay. Treatment with compounds which inhibit γ-secretase leads to a reduction of secreted Abeta thus providing a measure of inhibition.
The in vitro assay of γ-secretase activity uses a HEK293 membrane fraction as a source of γ-secretase and a recombinant APP substrate. Latter consist of the C-terminal 100 amino acids of human APP fused to a 6×Histidin tail for purification which is expressed in E. coli in a regulatable expression vector, e.g. pEt15. This recombinant protein corresponds to the truncated APP fragment which results after […] of the extracellular domain and which constitutes the γ-secretase substrate. […] The Abeta peptides which are produced by γ-secretase cleavage of the substrate are detected by specific ELISA assays as described (Brockhaus M et al, Neuroreport 9(7), 1481-1486 (1998).

Row | IC50 for blockade of the Notch pathway, range in words ([1]; DR215/F2 cell reporter assay) | IC50 ([1]; Homo sapiens, 215/F2 reporter cell line, 19 h, mean of at least 3 experiments) | hydrolysis by γ-GT [2] | IC50 [3] | Structure (SMILES)
1 | μM range | 1090 nM | also not hydrolyzed by γ-GT | – | C[C@H]1Oc2ccc(F)cc2N(CCOC(=O)NCCNC(=O)CC[C@H](N)C(=O)O)C(=O)[C@H]1NC(=O)[C@@](C)(O)C(=O)NCC(F)(F)C(F)(F)F [Compound 13b, (S)-2-Amino-5-(2-((2-((2R,3S)-7-fluoro-3-((S)-2-hydroxy-2-methyl-3-oxo-3-(2,2,3,3,3-pentafluoropropylamino)propanamido)-2-methyl-4-oxo-3,4-dihydrobenzo[b][1,4]oxazepin-5(2H)-yl)ethoxy)carbonylamino)ethylamino)-5-oxopentanoic acid hydrochloride]
2 | – | – | – | 90 nM | C[C@H]1Oc2ccc(F)cc2N(CCO)C(=O)[C@H]1NC(=O)C(C)(C)C(=O)NCC(F)(F)C(F)(F)F [Example 53, N-[(6R,7S)-2-Fluoro-9-(2-hydroxy-ethyl)-6-methyl-8-oxo-6,7,8,9-tetrahydro-5-oxa-9-aza-benzocyclohepten-7-yl]-2,2-dimethyl-N′-(2,2,3,3,3-pentafluoro-propyl)-malonamide]
